Test results taken from US8530663B2, “1-(2-phenoxymethylheteroaryl)piperidine and piperazine compounds” (Theravance, Inc., priority 2010, dated 2013).
Marks after values point to notes of the source that are not given here.

What was measured:
hSERT [1] = target: T1, hSERT (Homo sapiens, UniProt P31645); experiment: fluorescence-based serotonin reuptake assay (Tsuruda et al. 2010; data with asterisk); format: cell-based; details: serotonin reuptake inhibition, fluorescence-based assay (data indicated by an asterisk); for IC50: read-out: SERT pIC50 (converted)
T1 construct: expressed in transfected cells; host or cells: HEK-293

hNET [2] = target: T2, hNET (Homo sapiens, UniProt P23975); experiment: fluorescence-based norepinephrine reuptake assay (Tsuruda et al. 2010; data with asterisk); format: cell-based; details: norepinephrine reuptake inhibition, fluorescence-based assay (data indicated by an asterisk); for IC50: read-out: NET pIC50 (converted)
T2 construct: expressed in transfected cells; host or cells: HEK-293

hSERT [3] = target: T1, hSERT; experiment: hSERT membrane radioligand binding assay (3H-citalopram); details: hSERT membranes, 1.0 nM 3H-citalopram; for Ki: read-out: SERT pKi (converted)
Experimental: (§1) Membrane radioligand binding assays were used to measure inhibition of labeled ligand (^3H-citalopram or ^3H-nisoxetine or ^3H-WIN35428) binding to membranes prepared from cells expressing the respective human recombinant transporter (hSERT or hNET or hDAT) in order to determine the pKi values of test compounds at the transporters.
(§2) Recombinant human embryonic kidney (HEK-293) derived cell lines stably transfected with hSERT or hNET, respectively, were grown in DMEM medium supplemented with 10% dialyzed FBS (for hSERT) or FBS (for hNET), 100 μg/ml penicillin, 100 μg/ml streptomycin, 2 mM L-glutamine and 250 μg/ml of the aminoglycoside antibiotic G418, in a 5% CO2 humidified incubator at 37° C. When cultures reached 80% confluence, the cells were washed thoroughly in PBS (without Ca^2+ and Mg^2+) and lifted with 5 mM EDTA in PBS. Cells were pelleted by centrifugation, resuspended in lysis buffer (10 mM Tris-HCl, pH7.5 containing 1 mM EDTA), homogenized, pelleted by centrifugation, then resuspended in 50 mM Tris-HCl, pH 7.5 and 10% sucrose at 4° C. Protein concentration of the membrane suspension was determined using a Bio-Rad Bradford Protein Assay kit. Membranes were snap frozen and stored at −80° C. Chinese hamster ovary membranes expressing hDAT (CHO-DAT) were purchased from PerkinElmer and stored at −80° C.
(§3) Binding assays were performed in a 96-well assay plate in a total volume of 200 μL assay buffer (50 mM Tris-HCl, 120 mM NaCl, 5 mM KCl, pH 7.4) with 0.5, 1, and 3 μg membrane protein, for SERT, NET and DAT, respectively.
(§4) Stock solutions (10 mM in DMSO) of test compound were prepared and serial dilutions made using Dilution Buffer (50 mM Tris-HCl, 120 mM NaCl, 5 mM KCl, pH 7.4, 0.1% BSA, 400 μM ascorbic acid).
(§5) Following a 60 minute incubation at 22° C. (or a period sufficient to reach equilibrium), the membranes were harvested by rapid filtration over a 96-well UniFilter GF/B plate, pretreated with 0.3% polyethyleneimine, and washed 6 times with 300 μl wash buffer (50 mM Tris-HCl, 0.9% NaCl, pH 7.5 at 4° C.). Plates were dried overnight at room temperature, ˜45 μl of MicroScint™-20 (Perkin Elmer) added and bound radioactivity quantitated via liquid scintillation spectroscopy. Inhibition curves and saturation isotherms were analyzed using GraphPad Prism Software package (GraphPad Software, Inc., San Diego, Calif.). IC50 values were generated from concentration response curves using the Sigmoidal Dose Response (variable slope) algorithm in Prism GraphPad. Kd and Bmax values for the radioligand were generated from saturation isotherms using the Saturation Binding Global Fit algorithm in Prism GraphPad. pKi (negative decadic logarithm of Ki) values for test compounds were calculated from the best-fit IC50 values, and the Kd value of the radioligand, using the Cheng-Prusoff equation (Cheng & Prusoff (1973) Biochem. Pharmacol. 22(23):3099-3108): Ki=IC50/(1+[L]/Kd), where [L]=concentration radioligand.

hNET [4] = target: T2, hNET; experiment: hNET membrane radioligand binding assay (3H-nisoxetine); details: hNET membranes, 1.0 nM 3H-nisoxetine; for Ki: read-out: NET pKi (converted)
Experimental: as §1, §2, §3, §4, §5

hSERT [5] = target: T1, hSERT; experiment: hSERT neurotransmitter uptake assay (3H-5-HT); format: cell-based; details: serotonin reuptake inhibition, 3H-5-HT uptake, HEK-293 hSERT cells (no asterisk); for IC50: read-out: SERT pIC50 (converted)
Experimental: (§6) Neurotransmitter uptake assays were used to measure inhibition of ^3H-serotonin (^3H-5-HT), ^3H-norepinephrine (^3H-NE), and ^3H-dopamine (^3H-DA) uptake into cells expressing the respective transporter (hSERT, hNET or hDAT) in order to determine the pIC50 values of test compounds at the transporters.
(§7) HEK-293 derived cell lines stably-transfected with hSERT, hNET, or hDAT, respectively, were grown in DMEM medium supplemented with 10% dialyzed FBS (for hSERT) or FBS (for hNET and hDAT), 100 μg/ml penicillin, 100 μg/ml streptomycin, 2 mM L-glutamine and 250 μg/ml of the aminoglycoside antibiotic G418 (for hSERT and hNET) or 800 ug/ml (for hDAT), in a 5% CO2 humidified incubator at 37° C. When cultures reached 80% confluence, the cells were washed thoroughly in PBS (without Ca^2+ and Mg^2+) and lifted with 5 mM EDTA in PBS. Cells were harvested by centrifugation at 1100 rpm for 5 minutes, washed once by resuspension in PBS, then centrifuged. The supernatant was discarded and the cell pellet resuspended, by gentle trituration, in room temperature Krebs-Ringer bicarbonate buffer containing HEPES (10 mM), CaCl2 (2.2 mM), ascorbic acid (200 μM) and pargyline (200 μM), pH 7.4. The final concentration of cells in the cell suspension was 7.5×10^4 cells/ml, 1.25×10^5 cells/ml, and 5.0×10^4 cells/ml for SERT, NET, and DAT cell lines, respectively.
(§8) Stock solutions (10 mM in DMSO) of test compound were prepared and serial dilutions prepared using 50 mM Tris-HCl, 120 mM NaCl, 5 mM KCl, pH 7.4, 0.1% BSA, 400 μM ascorbic acid. Test compounds were incubated for 30 minutes at 37° C. with the respective cells, prior to addition of radiolabeled neurotransmitter, ^3H-5-HT (20 nM final concentration), ^3H-NE (50 nM final concentration), or ^3H-DA (100 nM final concentration).
(§9) Following a 10 minute incubation, at 37° C., with radioligand, the cells were harvested by rapid filtration over a 96-well UniFilter GF/B plate, pretreated with 1% BSA, and washed 6 times with 650 μl wash buffer (ice cold PBS). Plates were dried overnight at 37° C., ˜45 μl of MicroScint™-20 (Perkin Elmer) added and incorporated radioactivity quantitated via liquid scintillation spectroscopy. Inhibition curves were analyzed using GraphPad Prism Software package (GraphPad Software, Inc., San Diego, Calif.). IC50 values were generated from concentration response curves using the Sigmoidal Dose Response (variable slope) algorithm in Prism GraphPad.

hNET [6] = target: T2, hNET; experiment: hNET neurotransmitter uptake assay (3H-NE); format: cell-based; details: norepinephrine reuptake inhibition, 3H-NE uptake, HEK-293 hNET cells (no asterisk); for IC50: read-out: NET pIC50 (converted)
Experimental: as §6, §7, §8, §9

T1 sequence (P31645 whole entry): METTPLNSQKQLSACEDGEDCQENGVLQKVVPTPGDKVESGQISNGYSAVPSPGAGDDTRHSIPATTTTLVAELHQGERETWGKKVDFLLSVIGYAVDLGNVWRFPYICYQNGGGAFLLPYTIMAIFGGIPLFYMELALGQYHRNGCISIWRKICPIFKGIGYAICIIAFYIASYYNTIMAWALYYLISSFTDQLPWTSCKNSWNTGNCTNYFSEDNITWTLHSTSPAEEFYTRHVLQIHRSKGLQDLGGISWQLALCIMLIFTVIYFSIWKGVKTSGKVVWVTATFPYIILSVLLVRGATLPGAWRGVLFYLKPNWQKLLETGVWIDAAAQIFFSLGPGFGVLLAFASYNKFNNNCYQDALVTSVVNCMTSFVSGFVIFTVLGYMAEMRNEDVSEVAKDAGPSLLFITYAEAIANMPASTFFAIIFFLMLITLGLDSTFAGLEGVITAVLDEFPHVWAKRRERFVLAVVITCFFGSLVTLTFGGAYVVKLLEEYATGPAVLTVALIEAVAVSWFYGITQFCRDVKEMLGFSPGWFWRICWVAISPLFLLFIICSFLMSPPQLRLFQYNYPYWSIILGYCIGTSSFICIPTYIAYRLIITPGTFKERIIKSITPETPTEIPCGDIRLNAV
T2 sequence (P23975 whole entry): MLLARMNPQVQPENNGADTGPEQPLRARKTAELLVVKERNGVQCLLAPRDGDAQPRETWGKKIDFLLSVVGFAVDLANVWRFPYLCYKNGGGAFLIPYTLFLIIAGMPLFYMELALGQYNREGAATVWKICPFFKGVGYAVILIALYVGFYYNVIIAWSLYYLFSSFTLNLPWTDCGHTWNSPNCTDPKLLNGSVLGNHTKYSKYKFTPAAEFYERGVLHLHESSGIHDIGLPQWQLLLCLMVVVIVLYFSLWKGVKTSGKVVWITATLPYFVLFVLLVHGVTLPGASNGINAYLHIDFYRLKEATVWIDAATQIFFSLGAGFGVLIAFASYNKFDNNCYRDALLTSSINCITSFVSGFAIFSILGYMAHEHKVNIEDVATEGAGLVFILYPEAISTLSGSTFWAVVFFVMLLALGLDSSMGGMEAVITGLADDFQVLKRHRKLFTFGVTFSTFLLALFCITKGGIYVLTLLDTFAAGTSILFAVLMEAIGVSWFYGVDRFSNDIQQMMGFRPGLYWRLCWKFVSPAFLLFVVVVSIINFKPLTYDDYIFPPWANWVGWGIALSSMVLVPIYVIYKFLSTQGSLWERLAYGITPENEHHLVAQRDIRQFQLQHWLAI

Row | SMILES | SERT pIC50 (hSERT [1]) | NET pIC50 (hNET [2]) | SERT pKi (hSERT [3]) | NET pKi (hNET [4]) | further results
1 | Fc1cccc(F)c1OCc1occc1C1CCNCC1 [Example 18-3] | ≧6.0* | ≧5.0* |  |  | 
2 | Fc1cc(F)c(OCc2ccncc2C2CCNCC2)c(F)c1 [Example 9, 4-(2,4,6-Trifluorophenoxymethyl)-1′,2′,3′,4′,5′,6′-hexahydro[3,4]bipyridinyl] |  |  |  |  | Ki (hSERT [3]): ≤ 100 nM; Ki (hNET [4]): ≤ 100 nM; IC50 (hSERT [5]): ≤ 100 nM; IC50 (hNET [6]): ≤ 100 nM
3 | Fc1cc(F)c(OCc2cccnc2C2CCNCC2)c(F)c1 [Example 13, 3-(2,4,6-Trifluorophenoxymethyl)-1′,2′,3′,4′,5′,6′-hexahydro[2,4]bipyridinyl] |  |  |  |  | Ki (hSERT [3]): ≤ 100 nM; Ki (hNET [4]): ≤ 100 nM; IC50 (hSERT [5]): ≤ 100 nM; IC50 (hNET [6]): ≤ 100 nM
4 | Fc1cccc(Cl)c1OCc1ccncc1C1CCNCC1 [Example 10-4] |  |  | ≧7.0 | ≧7.0 | SERT pIC50 (hSERT [5]): ≧7.0; NET pIC50 (hNET [6]): ≧7.0
5 | Clc1cccc(Cl)c1OCc1occc1C1CCNCC1 [Example 18-1] | ≧7.0* | ≧4.5* |  |  | 
6 | c1ccc(OCc2occc2C2CCNCC2)cc1 [Example 17, 4-(2-Phenoxymethylfuran-3-yl)piperidine] |  |  |  |  | IC50 (hSERT [1]): ≤ 100 nM; IC50 (hNET [2]): ≤ 100 nM
7 | c1ccc(OCc2ccoc2C2CCNCC2)cc1 [Example 22-1] | ≧6.0* | ≧7.0* |  |  | 
8 | Clc1cccc(OCc2sccc2C2CCNCC2)c1 [Example 24, 4-[2-(3-Chlorophenoxymethyl)thiophen-3-yl]piperidine] |  |  |  |  | Ki (hSERT [3]): ≤ 100 nM; Ki (hNET [4]): ≤ 100 nM; IC50 (hSERT [1]): ≤ 100 nM; IC50 (hNET [2]): ≤ 100 nM
9 | Fc1cccc(F)c1OCc1cscc1C1CCNCC1 [Example 27, 4-[4-(2,6-Difluorophenoxymethyl)thiophen-3-yl]piperidine] |  |  |  |  | Ki (hSERT [3]): ≤ 100 nM; Ki (hNET [4]): ≤ 100 nM; IC50 (hSERT [5]): ≤ 100 nM; IC50 (hNET [6]): ≤ 100 nM
10 | Fc1cccc(F)c1OCc1ccoc1C1CCNCC1 [Example 22-2] | ≧5.0* | ≧6.0* |  |  | 
11 | Fc1cc(F)c(OCc2ccsc2C2CCNCC2)c(F)c1 [Example 31-3] | ≧7.0* | ≧7.0* | ≧7.0 | ≧7.0 | 
12 | Clc1cccc(OCc2ccoc2C2CCNCC2)c1 [Example 21, 4-[3-(3-Chlorophenoxymethyl)furan-2-yl]piperidine] |  |  |  |  | IC50 (hSERT [1]): ≤ 100 nM; IC50 (hNET [2]): ≤ 100 nM
13 | Fc1ccc(F)c(OCc2ncccc2C2CCNCC2)c1Cl [Example 2-9] | ≧7.0* | ≧7.0* | ≧7.0 | ≧6.0 | 
14 | Clc1cccc(OCc2ccsc2C2CCNCC2)c1 [Example 31-2] | ≧7.0* | ≧7.0* | ≧7.0 | ≧7.0 | 
15 | Fc1cc(F)c(OCc2cscc2C2CCNCC2)c(F)c1 [Example 28-3] |  |  | ≧7.0 | ≧7.0 | SERT pIC50 (hSERT [5]): ≧7.0; NET pIC50 (hNET [6]): ≧7.0
16 | Clc1cccc(OCc2occc2C2CCNCC2)c1 [Example 18-2] | ≧7.0* | ≧7.0* |  |  | 
